Laboratory results reported in patent EP4741383A1, “COMPOUND AND USE THEREOF AS ANTI-CANCER DRUG” (Tyligand Bioscience (Shanghai) Limited, priority 2023, dated 2025).

Tests used:
KYSE520 = experiment: CellTiter-Glo cell proliferation inhibition, KYSE520; format: cell-based, human; settings: for IC50: Homo sapiens, KYSE-520, KYSE520 cells, 120 hours, CellTiter-Glo
[1] = biological target: T1, SHP2 enzyme (catalytic domain, amino acid sequence 224-528) (Homo sapiens, UniProt Q06124); experiment: SHP2 enzyme inhibition assay (DiFMUP substrate, fluorescence); format: biochemical; settings: for IC50: SHP2 catalytic domain, DiFMUP substrate, 30 min pre-incubation, read-out: S HP2 I C50; for SHP2 IC50 times lower than control compound 11a-1: relative to 11a-1, IC50 = 0.108 µM
T1 construct: purchased GenScript
T1 sequence (Q06124 224-528): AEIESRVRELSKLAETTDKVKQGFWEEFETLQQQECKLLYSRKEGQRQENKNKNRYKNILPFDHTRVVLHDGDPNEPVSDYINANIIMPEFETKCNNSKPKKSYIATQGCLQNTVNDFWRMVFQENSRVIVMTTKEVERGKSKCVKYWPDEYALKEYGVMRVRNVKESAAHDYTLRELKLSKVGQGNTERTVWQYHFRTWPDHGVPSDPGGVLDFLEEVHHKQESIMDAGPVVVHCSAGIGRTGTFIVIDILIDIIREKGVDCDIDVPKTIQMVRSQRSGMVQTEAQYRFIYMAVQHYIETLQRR
Method in brief: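 SHP2 catalytic domain (aa 224-528) preincubated 30 min at room temperature with compounds (10-point 3-fold series) in HEPES pH 7.2 buffer with NaCl, EDTA, DTT, BSA, Brij35. DiFMUP from 50 µM working solution added, 5 min reaction; fluorescence 340/450 nm; IC50 from nonlinear dose-response fit.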

## CC1(n2c(-c3ccc(NC(=O)C(=O)Nc4ccc(-c5cnn(C6COC6)c5)cc4)cc3)cc3cc(F)c(-c4nnn[nH]4)cc32)CC1 [Example 6]
KYSE520
  IC50: 0.065 µM
[1]
  IC50: 73 nM

## O=C(Nc1ccc(-c2cc3cc(F)c(-c4nnn[nH]4)cc3n2C2CCC2)cc1)C(=O)Nc1ccc(N2CC3COCC3C2)cc1 (stereo not drawn) [Example 114]
KYSE520
  IC50: 0.118 µM
[1]
  IC50: 72 nM

## CC1(n2c(-c3ccc(NC(=O)C(=O)Nc4ccc(N5CCC(CCO)CC5)cc4)cc3)cc3cc(F)c(-c4nnn[nH]4)cc32)CCC1 [Example 26]
KYSE520
  IC50: 0.126 µM
[1]
  IC50: 61 nM

## CC1(CO)CCN(c2ccc(NC(=O)C(=O)Nc3ccc(-c4cc5cc(F)c(-c6nnn[nH]6)cc5n4C4CCC4)cc3)cc2)CC1 [Example 40]
KYSE520
  IC50: 0.168 µM
[1]
  IC50: 60 nM

## O=C(Nc1ccc(-c2cc3cc(F)c(-c4nnn[nH]4)cc3n2C2CCC2)cc1)C(=O)Nc1ccc(N2CCC3(CC(O)C3)C2)cc1 (stereo not drawn) [Example 89]
KYSE520
  IC50: 0.062 µM
[1]
  IC50: 157 nM

## CC1(n2c(-c3ccc(NC(=O)C(=O)Nc4ccc(N5CCC6(CC5)CC(CO)C6)cc4)cc3)cc3cc(F)c(-c4nnn[nH]4)cc32)CCC1 [Example 97]
KYSE520
  IC50: 0.095 µM
[1]
  IC50: 105 nM

## CC1(O)CCC2(CCN(c3ccc(NC(=O)C(=O)Nc4ccc(-c5cc6cc(F)c(-c7nnn[nH]7)cc6n5C5CCC5)cc4)cc3)CC2)CC1 [Example 110]
KYSE520
  IC50: 0.109 µM
[1]
  IC50: 77 nM

## Cn1c(-c2cccc(NC(=O)C(=O)Nc3ccc(-c4ccsc4)cc3)c2)c(I)c2cc(C(=O)O)c(O)cc21 [Example 11a-1, reference compound]
KYSE520
  IC50: 1.23 µM
[1]
  IC50: 108 nM

## O=C(Nc1ccc(-c2cc3cc(F)c(-c4nnn[nH]4)cc3n2C2CCC2)cc1)C(=O)Nc1ccc(N2CCC3(CCCOC3)C2)cc1 (stereo not drawn) [Example 62]
KYSE520
  IC50: 0.193 µM
[1]
  IC50: 65 nM

## O=C(Nc1ccc(-c2cc3cc(F)c(-c4nnn[nH]4)cc3n2C2CCC2)cc1)C(=O)Nc1ccc(N2CCC3(CCC(O)C3)CC2)cc1 (stereo not drawn) [Example 100]
KYSE520
  IC50: 0.057 µM
[1]
  IC50: 48 nM

## O=C(Nc1ccc(-c2cc3cc(F)c(-c4nnn[nH]4)cc3n2C2CCC2)cc1)C(=O)Nc1ccc(N2CCC3(CCOCC3)CC2)cc1 [Example 76]
KYSE520
  IC50: 0.096 µM
[1]
  IC50: 40 nM

## CC1(O)CC2CN(c3ccc(NC(=O)C(=O)Nc4ccc(-c5cc6cc(F)c(-c7nnn[nH]7)cc6n5C5(C)CCC5)cc4)cc3)CC2C1 (stereo not drawn) [Example 118]
KYSE520
  IC50: 0.116 µM
[1]
  IC50: 45 nM

## CC1(O)CC2(CCN(c3ccc(NC(=O)C(=O)Nc4ccc(-c5cc6cc(F)c(-c7nnn[nH]7)cc6n5C5(C)CCC5)cc4)cc3)CC2)C1 [Example 95]
KYSE520
  IC50: 0.113 µM
[1]
  IC50: 61 nM

## CC1(O)CCC2(CC1)CN(c1ccc(NC(=O)C(=O)Nc3ccc(-c4cc5cc(F)c(-c6nnn[nH]6)cc5n4C4CCC4)cc3)cc1)C2 [Example 83]
KYSE520
  IC50: 0.163 µM
[1]
  IC50: 58 nM

## O=C(Nc1ccc(-c2cc3cc(F)c(-c4nnn[nH]4)cc3n2C2CCC2)cc1)C(=O)Nc1ccc(N2CC3(CCCOC3)C2)cc1 [Example 55]
KYSE520
  IC50: 0.108 µM
[1]
  IC50: 45 nM

## CC1(O)CCC2(CCN(c3ccc(NC(=O)C(=O)Nc4ccc(-c5cc6cc(F)c(-c7nnn[nH]7)cc6n5C5(C)CCC5)cc4)cc3)CC2)CC1 [Example 111]
KYSE520
  IC50: 0.105 µM
[1]
  IC50: 94 nM

## O=C(Nc1ccc(-c2ccsc2)cc1)C(=O)Nc1ccc(-c2cc3ccc(-c4nnn[nH]4)nc3n2C2CCC2)cc1 [Example 129]
KYSE520
  IC50: 2.85 µM
[1]
  IC50: 59 nM

## O=C(Nc1ccc(-c2ccsc2)cc1)C(=O)Nc1ccc(-c2oc3cc(F)c(-c4nnn[nH]4)cc3c2C2CCC2)cc1 [Example 130]
KYSE520
  IC50: 0.422 µM
[1]
  IC50: 25 nM

## O=C(Nc1ccc(-c2cc3cc(F)c(-c4nnn[nH]4)cc3n2C2CCC2)cc1)C(=O)Nc1ccc(N2CCC(C3COC3)CC2)cc1 [Example 20]
KYSE520
  IC50: 0.036 µM
KYSE520; relative to 11a-1 (1.23 µM)
  IC50 against KYSE-520 cells, fold lower than 11a-1: 34 fold
[1]
  IC50: 27 nM
  SHP2 IC50 times lower than control compound 11a-1: 3-4 times

## CC1(n2c(-c3ccc(NC(=O)C(=O)Nc4ccc(N5CCC6(CCOC6)CC5)cc4)cc3)cc3cc(F)c(-c4nnn[nH]4)cc32)CCC1 [Example 68]
KYSE520
  IC50: 0.057 µM
[1]
  IC50: 48 nM

## CC1(n2c(-c3ccc(NC(=O)C(=O)Nc4ccc(N5CCC6(CCOCC6)CC5)cc4)cc3)cc3cc(F)c(-c4nnn[nH]4)cc32)CCC1 [Example 77]
KYSE520
  IC50: 0.049 µM
[1]
  IC50: 20 nM
  SHP2 IC50 times lower than control compound 11a-1: 3-4 times

## CC1(O)CC2(CCN(c3ccc(NC(=O)C(=O)Nc4ccc(-c5cc6cc(F)c(-c7nnn[nH]7)cc6n5C5CCC5)cc4)cc3)CC2)C1 [Example 94]
KYSE520
  IC50: 0.115 µM
[1]
  IC50: 31 nM
  SHP2 IC50 times lower than control compound 11a-1: 3-4 times
